Results reported in patent publication US4145554A, “3-Nitropyrazole derivatives” (Eli Lilly and Company, priority 1977, dated 1979).
Values after ≈ are worked out from the molar mass of the structure shown. Read-outs that look alike come from different tables or passages of the source.

Assays:
Streptococcus sp. 80 = experiment: in vitro tube dilution test (MIC); assay type: cell-based
Text: (§1) Other compounds of our invention have also been tested in the tube dilution test and shown to have in vitro activity against a number of microorganisms. The table below reports tests of a number of exemplary compounds against exemplary microorganisms. The compounds are identified by their numbers in the listing above. The data are reported as the MIC in micrograms per milliliter against the named exemplary microorganisms.

Escherichia coli = experiment: in vitro tube dilution test (MIC); assay type: cell-based
Text: (§2) Our compound, 1-(2-hydroxyethyl)-3-nitro-4-pyrazolecarboxamide, has been extensively tested in vitro to determine the range of microorganisms against which it is active. The table of data below reports the minimum inhibitory concentration (MIC) at which the compound is effective in controlling a variety of microorganisms in a standard tube dilution test system. The MIC is reported as micrograms of compound per milliliter.
as §1

Mycoplasma gallisepticum = experiment: in vitro tube dilution test (MIC); assay type: cell-based; settings: Mycoplasmoides gallisepticum
Text: as §2, §1

Pasteurella multocida = experiment: in vitro tube dilution test (MIC); assay type: cell-based
Text: as §2
(§3) The other preferred compounds of our invention have also been thoroughly tested in the in vitro tube dilution test.
as §1

Salmonella dublin = experiment: in vitro tube dilution test (MIC); assay type: cell-based; settings: Salmonella enterica
Text: as §3, §1

[1] = tested on: Staphylococcus aureus sp. 1130; experiment: in vitro tube dilution test (MIC); assay type: cell-based
Text: as §3, §1

Vibrio coli 3811 = experiment: in vitro tube dilution test (MIC); assay type: cell-based; settings: Campylobacter coli
Text: as §3, §1

Salmonella typhimurium = experiment: Salmonellosis in chickens, single injection to day-old chicks; assay type: in vivo; settings: for responders at 60 mg/kg: Salmonella enterica, TYPHIMURIUM, 168 h, single injection of 60 mg./kg., seven days, read-out: Survival (converted)
Description: A number of our 3-nitropyrazoles have been tested against an induced infection of Salmonella typhimurium in day-old chicks. The test was conducted by administering a single injection of 60 mg./kg. of the compounds to each of five chicks. The following day, the chicks were challenged by the subcutaneous injection of a dispersion of S. typhimurium organisms sufficient to kill most or all of the untreated control chicks.
Some of the compounds were tested more than once, in which instances the data are reported as the total survivors from the multiple treatment groups. Untreated, challenged control groups of chicks were tested together with each batch of groups of chicks to which test compounds were administered. Since the mortality of the untreated control chicks varied somewhat from one group of tests to another, results of the untreated control groups are reported below with each test.

[2] = Streptococcus sp. 80, tube dilution, read-out: MIC
[3] = Mycoplasma gallisepticum, tube dilution, read-out: MIC
[4] = Salmonella dublin, tube dilution, read-out: MIC
[5] = Staphylococcus aureus sp. 1130, tube dilution, read-out: MIC
[6] = Vibrio coli 3811, tube dilution, read-out: MIC

| SMILES | MIC (Streptococcus sp. 80; [2]) [µg/mL] | MIC (Escherichia coli; tube dilution, read-out: MIC) [µg/mL] | MIC (Mycoplasma gallisepticum; [3]) [µg/mL] | MIC (Pasteurella multocida; tube dilution, read-out: MIC) [µg/mL] | MIC (Salmonella dublin; [4]) [µg/mL] | MIC [1, 5] [µg/mL] | MIC (Vibrio coli 3811; [6]) [µg/mL] | responders at 60 mg/kg (Salmonella typhimurium) [%] | MIC (Streptococcus sp. 80; Streptococcus, SP.80) [µg/mL] | MIC (Escherichia coli) [µg/mL] | MIC (Mycoplasma gallisepticum) [µg/mL] | MIC (Pasteurella multocida) [µg/mL] | MIC (Salmonella dublin) [µg/mL] | MIC ([1]; Staphylococcus aureus, SP.1130) [µg/mL] | MIC (Vibrio coli 3811; 3811) [µg/mL] | chicks protected of the 5-bird treated group (Salmonella typhimurium; salmonella challenge) |
| --- | --- | --- | --- | --- | --- | --- | --- | --- | --- | --- | --- | --- | --- | --- | --- | --- |
| N#Cc1cn(CCCl)nc1[N+](=O)[O-] [Compound 33, 1-(2-chloroethyl)-3-nitro-4-pyrazolecarbonitrile] | 100 (≈ 499 µM) | 100 (≈ 499 µM) | > 50 |  | 100 (≈ 499 µM) | 100 (≈ 499 µM) | 12.5 (≈ 62.3 µM) | 80 |  |  |  |  |  |  |  |  |
| CCCn1cc(C(N)=O)c([N+](=O)[O-])n1 [Compound 38, 3-nitro-1-propyl-4-pyrazolecarboxamide] |  |  |  |  |  |  |  | 80 |  |  |  |  |  |  |  |  |
| N#Cc1cn(CCO)nc1[N+](=O)[O-] [Compound 55, 1-(2-hydroxyethyl)-3-nitro-4-pyrazolecarbonitrile] | 50 (≈ 275 µM) | 12.5 (≈ 68.6 µM) |  |  | 6.25 (≈ 34.3 µM) | 6.25 (≈ 34.3 µM) |  | 80 |  |  |  |  |  |  |  |  |
| NC(=O)c1cn(C2C=CC(n3cc(C(N)=O)c([N+](=O)[O-])n3)C=C2)nc1[N+](=O)[O-] (centres unmarked) [Compound 59, 1,1'-(2,5-cyclohexadien-1,4-ylene)-bis(3-nitro-4-pyrazolecarboxamide)] |  |  |  |  |  |  |  |  | > 50 | 3.12 (≈ 8.04 µM) | 3.12 (≈ 8.04 µM) | 3.12 (≈ 8.04 µM) | 3.12 (≈ 8.04 µM) | 1.56 (≈ 4.02 µM) | 12.5 (≈ 32.2 µM) | at least three chicks of the 5-bird treated group |
| CC(O)Cn1cc(C(N)=O)c([N+](=O)[O-])n1 (centres unmarked) [Compound 69, 1-(2-hydroxypropyl)-3-nitro-4-pyrazolecarboxamide] |  |  |  |  |  |  |  | 100 |  |  |  |  |  |  |  |  |

More lines, main results first:

| MIC (Streptococcus sp. 80; [2]) [µg/mL] | MIC (Escherichia coli; tube dilution, read-out: MIC) [µg/mL] | MIC (Mycoplasma gallisepticum; [3]) [µg/mL] | MIC (Pasteurella multocida; tube dilution, read-out: MIC) [µg/mL] | MIC (Salmonella dublin; [4]) [µg/mL] | MIC [1, 5] [µg/mL] | MIC (Vibrio coli 3811; [6]) [µg/mL] | SMILES | responders at 60 mg/kg (Salmonella typhimurium) [%] | MIC (Streptococcus sp. 80; Streptococcus, SP.80) [µg/mL] | MIC (Escherichia coli) [µg/mL] | MIC (Mycoplasma gallisepticum) [µg/mL] | MIC (Pasteurella multocida) [µg/mL] | MIC (Salmonella dublin) [µg/mL] | MIC ([1]; Staphylococcus aureus, SP.1130) [µg/mL] | MIC (Vibrio coli 3811; 3811) [µg/mL] | chicks protected of the 5-bird treated group (Salmonella typhimurium; salmonella challenge) |
| --- | --- | --- | --- | --- | --- | --- | --- | --- | --- | --- | --- | --- | --- | --- | --- | --- |
| 50 (≈ 236 µM) | 12.5 (≈ 58.9 µM) | > 50 | > 50 | 6.25 (≈ 29.5 µM) | 6.25 (≈ 29.5 µM) | 6.25 (≈ 29.5 µM) | CC(=O)Cn1cc(C(N)=O)c([N+](=O)[O-])n1 [Compound 9, 1-(2-oxopropyl)-3-nitro-4-pyrazolecarboxamide] | 100 |  |  |  |  |  |  |  |  |
| 50 (≈ 203 µM) | 12.5 (≈ 50.8 µM) | 6.25 (≈ 25.4 µM) | 12.5 (≈ 50.8 µM) | 12.5 (≈ 50.8 µM) | 6.25 (≈ 25.4 µM) | 50 (≈ 203 µM) | NC(=O)c1cn(Cc2ccccc2)nc1[N+](=O)[O-] [Compound 18, 1-benzyl-3-nitro-4-pyrazolecarboxamide] | 70 |  |  |  |  |  |  |  |  |
| 50 (≈ 229 µM) | 3.12 (≈ 14.3 µM) | > 50 | 12.5 (≈ 57.2 µM) | 3.12 (≈ 14.3 µM) | > 1.56 | 25 (≈ 114 µM) | NC(=O)c1cn(CCCl)nc1[N+](=O)[O-] [Compound 52, 1-(2-chloroethyl)-3-nitro-4-pyrazolecarboxamide] | 80 |  |  |  |  |  |  |  |  |
| 50 (≈ 233 µM) | 6.25 (≈ 29.2 µM) | 1.56 (≈ 7.28 µM) | 6.25 (≈ 29.2 µM) | 3.12 (≈ 14.6 µM) | 50 (≈ 233 µM) | 12.5 (≈ 58.4 µM) | NC(=O)c1cn(CCCO)nc1[N+](=O)[O-] [Compound 62, 1-(3-hydroxypropyl)-3-nitro-4-pyrazolecarboxamide] | 70 |  |  |  |  |  |  |  |  |
| > 50 | 50 (≈ 215 µM) | 6.25 (≈ 26.9 µM) | 25 (≈ 107 µM) | 12.5 (≈ 53.7 µM) | 50 (≈ 215 µM) | 25 (≈ 107 µM) | NC(=O)c1cn(CCCCl)nc1[N+](=O)[O-] [Compound 63, 1-(3-chloropropyl)-3-nitro-4-pyrazolecarboxamide] | 40 |  |  |  |  |  |  |  |  |
| > 50 | 25 (≈ 126 µM) | 50 (≈ 252 µM) | 50 (≈ 252 µM) | 12.5 (≈ 63.1 µM) | 50 (≈ 252 µM) | > 50 | CC(C)n1cc(C(N)=O)c([N+](=O)[O-])n1 [Compound 64, 1-isopropyl-3-nitro-4-pyrazolecarboxamide] | 60 |  |  |  |  |  |  |  |  |
| 25 (≈ 95.3 µM) | 50 (≈ 191 µM) | 50 (≈ 191 µM) | 12.5 (≈ 47.7 µM) | > 50 | 25 (≈ 95.3 µM) | > 50 | CS(=O)(=O)CCn1cc(C(N)=O)c([N+](=O)[O-])n1 [Compound 66, 1-[2-(methylsulfonyl)ethyl]-3-nitro-4-pyrazolecarboxamide] | 40 |  |  |  |  |  |  |  |  |
| > 50 | 50 (≈ 238 µM) | > 50 | 25 (≈ 119 µM) | 25 (≈ 119 µM) | 12.5 (≈ 59.5 µM) | 12.5 (≈ 59.5 µM) | CC=CCn1cc(C(N)=O)c([N+](=O)[O-])n1 [Compound 75, 1-(2-butenyl)-3-nitro-4-pyrazolecarboxamide] | 60 |  |  |  |  |  |  |  |  |
